Among the data in ChEMBL document CHEMBL4406899, “Design, synthesis, and biological evaluation of 2-amino-N-(2-methoxyphenyl)-6-((4-nitrophenyl)sulfonyl)benzamide derivatives as potent HIV-1 Vif inhibitors” (Bioorg Med Chem Lett, 2019) are CC50, EC50 and selectivity ratio values, retold here.

Series [1] can be described thus: Cytotoxicity against human H9 cells assessed as reduction in cell viability incubated for 7 days by MTT assay. It counts as cell-based.
For series [2], the system named is Human immunodeficiency virus 1. Kind of series: Antiviral activity against HIV1 infected in human H9 cells assessed as decrease in p24 antigen production incubated for 7 days by ELISA. The note with it: Human immunodeficiency virus 1, H9, 168 h. It counts as functional, organism-based. A general note: An ELISA detects its analyte on a solid surface through an enzyme-linked reagent.

Series [3] is described as follows: Selectivity index, ratio of CC50 for human H9 cells to EC50 for antiviral activity against HIV-1. Particulars: read-out: Ratio CC50/EC50. It counts as toxicity.

Consider `COc1ccccc1NC(=O)c1c(N)cccc1Sc1ccc([N+](=O)[O-])cc1`, for which, in series [1], the cytotoxic concentration (CC50) (as a rule, the concentration that lowers cell viability or growth by half) at 168 h was 462 µM. Further, in series [2], the half-maximal effective concentration (EC50) (in general, the concentration needed to bring the measured effect to its halfway point) stood at 2.12 µM. For the same compound, the selectivity ratio in series [3] is 263.
The like results for `Nc1cccc(Sc2ccc([N+](=O)[O-])cc2)c1C(=O)Nc1ccccc1O` were, in that order, 153 µM, 9.8 µM and 15.6.
The like results for `COc1ccccc1NC(=O)c1c(N)cccc1Sc1ccncc1` were, in that order, 569 µM, 176 µM and 3.23.
For `CS(=O)(=O)Oc1ccccc1NC(=O)c1c(N)cccc1Sc1ccc([N+](=O)[O-])cc1` the same measures were 422 µM, 79.9 µM and 5.28.
Take `COc1ccc(NC(=O)c2c(N)cccc2Sc2ccc([N+](=O)[O-])cc2)c(OC)c1`: the cytotoxic concentration (CC50) at 168 h in series [1] is 82.5 µM. Moreover, the EC50 in series [2] amounted to 20.3 µM. Moreover, the selectivity ratio in series [3] amounted to 4.06.
As to `COc1ccccc1NC(=O)c1c(N)cccc1Sc1ccc(C(F)(F)F)cc1`, the CC50 at 168 h in series [1] is 352 µM. The 50% effective concentration (EC50) in series [2] worked out at 24.2 µM. For the same compound, the selectivity ratio in series [3] worked out at 14.6.
For `COc1ccccc1NC(=O)c1c(N)cccc1S(=O)(=O)c1ccc(C(F)(F)F)cc1`, the CC50 at 168 h in series [1] is 444 µM. For the same compound, the EC50 in series [2] is 4.62 µM. In series [3], the selectivity ratio amounted to 96.5.
The like results for `COc1ncccc1NC(=O)c1c(N)cccc1Sc1ccc([N+](=O)[O-])cc1` were, in that order, 182 µM, 25.9 µM and 7.03.
Regarding `COc1ncccc1NC(=O)c1c(N)cccc1S(=O)(=O)c1ccc([N+](=O)[O-])cc1`, in series [2], the concentration for a half-maximal effect (EC50) worked out at 228 µM.
In the case of `Nc1cccc(Sc2ccc([N+](=O)[O-])cc2)c1C(=O)Nc1ccccc1I`, the half-maximal cytotoxic concentration (CC50) at 168 h in series [1] came out at 407 µM. The concentration giving a half-maximal response (EC50) in series [2] worked out at 125 µM. For the same compound, the selectivity ratio in series [3] was found to be 3.26.
Regarding `COc1ccccc1NC(=O)c1c(N)cccc1S(=O)(=O)c1ccc(C(=O)O)cc1`, in series [2], the 50% effective concentration (EC50) was 235 µM.
Consider `COc1ccccc1NC(=O)c1c(N)cccc1Sc1cc(C)cc(C)c1`, for which the half-maximal cytotoxic concentration (CC50) at 168 h in series [1] turned out to be 181 µM. Besides, the EC50 in series [2] was 9.6 µM. For the same compound, the selectivity ratio in series [3] is 18.9.
For `COc1ccccc1NC(=O)c1c(N)cccc1S(=O)(=O)c1ccc(F)cc1` the same measures were 499 µM, 12.3 µM and 53.7.
In the case of `COc1ccccc1NC(=O)c1c(N)cccc1S(=O)(=O)c1cc(C)cc(C)c1`, the EC50 in series [2] turned out to be 244 µM.
On the same count and under the same terms, then `COc1ccccc1NC(=O)c1c(N)cccc1Sc1ccc(C(=O)O)cc1`, with 252 µM.
With `Nc1ccccc1NC(=O)c1c(N)cccc1Sc1ccc([N+](=O)[O-])cc1`, the CC50 at 168 h in series [1] turned out to be 427 µM. In series [2], the concentration giving a half-maximal response (EC50) turned out to be 15.1 µM. Also, the selectivity ratio in series [3] worked out at 28.3.
As to `COc1ccccc1NC(=O)c1c(N)cccc1Sc1ccc(F)cc1`, the CC50 at 168 h in series [1] was found to be 543 µM. Also, the EC50 in series [2] is 44.8 µM. The selectivity ratio in series [3] was 15.6.
For `Nc1cccc(S(=O)(=O)c2ccc([N+](=O)[O-])cc2)c1C(=O)Nc1ccccc1I` the same measures were 382 µM, 30.9 µM and 12.4.
